Read-outs that look alike come from different tables or passages of the source. Marks after values point to notes of the source that are not given here.
What was measured:
[1] = Loading efficiency of small molecules in microarrayed EVA films; assay type: physicochemical
Description: To embed molecules into the polymer matrix, they were first dissolved in an appropriate solvent, depending on their respective hydrophobicity. A stock solution of azide (99%, Acros), a hydrophilic molecule, was dissolved in dH2O whereas Nutlin-3a (EMD Chemicals, Gibbstown, N.J.) and camptothecin (Sigma), both hydrophobic molecules, were dissolved in DMSO. Dissolved drugs were then added to 5% EVA at a 1:10 ratio of solvent:EVA. Prior to printing, polymer mixtures were vortexed for 30 s and then homogenized for 1 min before being loaded onto the source plate of the robotic mini-arrayer.
To determine the loading efficiency of factors, polymer formulations were made as described above. Films derived from 100 μl EVA loaded with factors were then made on glass coverslips and allowed to dry overnight under vacuum. Films were removed from the glass substrates and weighed. Films were washed briefly with PBS before being placed in 1 ml toluene to dissolve the polymer. Samples were then analyzed using a Nanodrop-ND-1000 spectrophotometer. Standard curves were generated for each factor, and loading efficiency was calculated as the percent of drug embedded in the polymer compared to the theoretical drug concentration.

[2] = tested on: CA1 CCSCs; test: CA1 patient-derived CCSC proliferation on drug-eluting microarray; assay type: cell-based, human; details: for proliferation with increasing drug exposure: CA1 cells, single drug; for drug sensitivity (1/D50) / Emax: non-proliferation
Description: ALDH^high spheres were generated from tumor cells obtained from patients with colon cancer. Isolated cells were cultured in serum-free media as previously described^14 (reference 14 is hereby incorporated by reference herein with respect to methods for culturing cells in serum-free media). Using these cultures, adherent cell growth was established with 0.1% gelatin (Millipore) coatings on tissue culture plates (TPP, Switzerland) and the cells were serially propagated. For CA1 and CA2 cells, 25,000 cells were tested per array. Cells were seeded in PBS with 0.1% gelatin and treated identically to the microarrays with HCT116.
(§1) Camptothecin-loaded microarrays were stained with Annexin V (BD Pharminigen), fixed in 4% paraformaldehyde, and placed in PBS with Hoechst dye 34580 (Invitrogen, USA) for 30 min. Azide-loaded microarrays were fixed with 4% paraformaldehyde and incubated with PBS containing Hoechst 34580 dye. Finally, nutlin-3a-loaded microarrays were fixed with 4% paraformaldehyde, stained with BrdU (BD Bioscience, San Jose, Calif.), and incubated in PBS containing Hoechst 34580 dye. All arrays were mounted with Fluoro-Gel (Electron Microscope Sciences, Hatfield, Pa.) and imaged using an Axiovert 200M microscope (Carl Zeiss, Oberkochen, Germany). Analysis was performed with Axiovision (Carl Zeiss, Oberkochen, Germany) by quantifying, in each drug-eluting island, the area of fluorescence and reported as relative fluorescence intensity (RFI).
Proliferation values were normalized to control (0 μM drug). Values for concentration-response curves were transformed to non-proliferation by subtracting the normalized value from 100%. Curve fitting analysis was performed to obtain Emax and D50 values using the equation E=E0+(Emax×D)/(D+D50) where E is the effect (either non-proliferation or apoptosis), E0 is the initial value, Emax is the maximum effect, D is the dose, and D50 is the dose at which a 50% maximum effect (Emax) is observed^34. Drug sensitivity values were obtained by taking the inverse of the D50 and multiplying by 100. Those values marked with “#” indicate that the r^2 value of the curve-fit was below 0.65. N/A values are present where negative parameters were obtained.

[3] = tested on: HCT116 cells; test: Apoptosis of HCT116 cells incubated with soluble drugs in 96-well plates; assay type: cell-based, human; details: soluble drug, 24 h
Description: FIGS. 12A-12D are a series of graphs illustrating apoptosis and proliferation dose-response curves from HCT116 cells incubated with soluble drugs. FIG. 12A illustrates the percent of apoptotic HCT116 cells incubated 24 h with soluble nutlin-3a. […] Significant differences were determined by ANOVA, {F(5,282)=19.694, p<0.05}, followed by Tukey's post-hoc analysis. FIG. 12C illustrates the percent of non-proliferating HCT116 cells incubated 24 h with soluble nutlin-3a. Significant differences were determined by ANOVA, {F(4,226)=12.643, p<0.05}, followed by Tukey's post-hoc analysis. […] Significant differences were determined by ANOVA, {F(5,252)=102.485, p<0.05}, followed by Tukey's post-hoc analysis. (*: p<0.05 compared to all other conditions, #:p<0.05 from all conditions marked *).
Results were corroborated using soluble drugs in 96-well plates (FIGS. 12A-D).

[4] = tested on: HCT116 cells; test: HCT116 cell number (Hoechst nuclear stain) on drug-loaded microarray; assay type: cell-based, human; details: after 72 h
Description: The following figures (FIGS. 5.1 to 5.4) are micrographs taken from drug-eluting cellular microarrays, manufactured as described herein. The images are taken from individual cellular islands from the same array under various drug-loading conditions over a period of three days. HCT116 cells are nuclear stained with Hoechst for easy visibility. […] The water phase for this experiment was loaded with azide at various concentrations in addition to a control with no drug loaded. Azide is a useful probe reagent, mutagen, and preservative. Azide inhibits cytochrome oxidase by binding irreversibly to the heme cofactor in a process similar to the action of carbon monoxide. As such, it is expected to induce necrosis in cells at physiologically relevant doses.
To establish microarray fidelity, microarrays were manufactured as described above. HCT116 cells were then seeded over microarrays and incubated for 24 or 72 h. Microarrays were fixed in 4% paraformaldehyde and stained with Hoechst 34580 dye.
as §1

[5] = Nutlin dose response, 2nd drug CPT 50 μM, CA1

CC[C@@]1(O)C(=O)OCc2c1cc1n(c2=O)Cc2cc3ccccc3nc2-1 [Camptothecin]
Loading efficiency (%) [1]: 92 +/− 3% | proliferation with increasing drug exposure [2]: decreasing proliferation | drug sensitivity (1/D50) ([2]; Camptothecin dose response, 2nd drug NUT 0 μM, CA1): 10.8 +/− 16 | drug sensitivity (1/D50) ([2]; Camptothecin dose response, 2nd drug NUT 1 μM, CA1): 1.97 +/− 7.7 | drug sensitivity (1/D50) ([2]; Camptothecin dose response, 2nd drug NUT 25 μM, CA1): 3.18 +/− 0.40 | drug sensitivity (1/D50) ([2]; Camptothecin dose response, 2nd drug NUT 125 μM, CA1): 0.62 +/− 1.8 | Emax ([2]; Homo sapiens, Camptothecin dose response, 2nd drug NUT 0 μM, CA1, read-out: Emax): 61.9% | Emax ([2]; Homo sapiens, Camptothecin dose response, 2nd drug NUT 1 μM, CA1, read-out: Emax): 105% | Emax ([2]; Homo sapiens, Camptothecin dose response, 2nd drug NUT 25 μM, CA1, read-out: Emax): 109% | Emax ([2]; Homo sapiens, Camptothecin dose response, 2nd drug NUT 125 μM, CA1, read-out: Emax): 221% | effect on inducing apoptosis of HCT116 cells [3]: dose-dependent effect

COc1ccc(C2=N[C@@H](c3ccc(Cl)cc3)[C@@H](c3ccc(Cl)cc3)N2C(=O)N2CCNC(=O)C2)c(OC(C)C)c1 [Nutlin-3a]
Loading efficiency (%) [1]: 81 +/− 7% | increase in sensitivity to nutlin-3a ([2]; 10 μM camptothecin present vs nutlin-3a alone, CA1): 75% | increase in Emax of the nutlin-3a concentration response curve ([2]; 50 μM camptothecin present vs nutlin-3a alone, CA1): 115% | proliferation with increasing drug exposure [2]: decreasing proliferation | Emax ([2]; Nutlin dose response, 2nd drug CPT 0 μM, CA1): 38.0 | drug sensitivity (1/D50) ([2]; Nutlin dose response, 2nd drug CPT 0 μM, CA1, listed as Nutlin): 28.6 +/− 4.7* | drug sensitivity (1/D50) ([2]; Nutlin dose response, 2nd drug CPT 0 μM, CA1, listed as nutlin-3a): 28.6 | Emax ([2]; Nutlin dose response, 2nd drug CPT 1 μM, CA1): 34.7 +/− 5.9 | Emax ([2]; Nutlin dose response, 2nd drug CPT 10 μM, CA1): 50.9 +/− 0.15 | drug sensitivity (1/D50) ([2]; Nutlin dose response, 2nd drug CPT 10 μM, CA1, listed as Nutlin): 50.0 +/− 1.3* | drug sensitivity (1/D50) ([2]; Nutlin dose response, 2nd drug CPT 10 μM, CA1, listed as nutlin-3a): 50.0 | Emax [2, 5]: 81.7 | drug sensitivity (1/D50) [2, 5]: 55.6 +/− 180 | effect on inducing apoptosis of HCT116 cells [3]: no effect | HCT116 cell numbers vs drug loading concentration [4]: decreased with increasing loading concentrations
